Calls of active or inactive are those of the source. The rule behind the calls is not given here. Positions of bridges follow the written chain, without caps; N, C: chain ends. Residues, ends and D or L forms follow the SMILES beside them.
Legend:
[1] = target: Replicase polyprotein 1ab (Severe acute respiratory syndrome coronavirus 2, UniProt P0DTD1); assay: Inhibition of N-terminal his-tagged SARS-CoV-2 Main protease expressed in Escherichia coli BL21 (DE3) using Dabcyl-TSAVLWSGFRICMK-Edans as substrate preincubated for 10 mins by microplate reader analysis
SARS-CoV-2 = assay: Antiviral activity against SARS-CoV-2 infected in human Caco-2 cells assessed as inhibition of viral infection preincubated for 1 hr followed by viral infection measured after 48 hrs by CQ1 confocal quantitative image cytometer analysis; format: functional, organism-based; conditions: for EC50: Severe acute respiratory syndrome coronavirus 2, Caco-2; for Activity: Severe acute respiratory syndrome coronavirus 2, time 49.0 hrs

SMILES | IC50 [1] | EC50 (SARS-CoV-2) | Activity (SARS-CoV-2)
CC(C)C[C@@H]1NC(=O)[C@H](Cc2ccccc2)NC(=O)[C@@H]2CCCN2C(=O)[C@H]([C@@H](C)O)NC(=O)[C@H]([C@@H](C)O)NC(=O)[C@H](C)NC(=O)[C@H](Cc2c[nH]cn2)NC(=O)[C@H](Cc2ccccc2)NC(=O)[C@H]([C@@H](C)O)NC(=O)[C@H](C(C)C)NC(=O)[C@@H](Cc2ccc(O)cc2)NC(=O)CSC[C@@H](C(=O)NCC(N)=O)NC(=O)[C@@H]2CCCN2C(=O)[C@@H]2CCCN2C1=O | 510 nM |  | 
CC(C)C[C@@H]1NC(=O)[C@H](Cc2ccccc2)NC(=O)[C@@H]2CCCN2C(=O)[C@H](C)NC(=O)[C@H]([C@@H](C)O)NC(=O)[C@H]([C@@H](C)O)NC(=O)[C@H](Cc2c[nH]cn2)NC(=O)[C@H](Cc2ccccc2)NC(=O)[C@H]([C@@H](C)O)NC(=O)[C@H](C(C)C)NC(=O)[C@@H](Cc2ccc(O)cc2)NC(=O)CSC[C@@H](C(=O)NCC(N)=O)NC(=O)[C@@H]2CCCN2C(=O)[C@@H]2CCCN2C1=O | 220 nM |  | 
CC(C)[C@@H]1NC(=O)[C@@H](Cc2ccc(O)cc2)NC(=O)CC[C@@H](C(=O)NCC(N)=O)NC(=O)[C@@H]2CCCN2C(=O)[C@@H]2CCCN2C(=O)[C@@H]2CSCc3cccc(c3)CSC[C@H](NC1=O)C(=O)N[C@@H](Cc1ccccc1)C(=O)N[C@@H](Cc1c[nH]cn1)C(=O)N[C@@H]([C@@H](C)O)C(=O)N[C@@H]([C@@H](C)O)C(=O)N[C@@H]([C@@H](C)O)C(=O)N1CCC[C@H]1C(=O)N[C@@H](Cc1ccccc1)C(=O)N2 | 440 nM | > 100000 nM | 
CC(C)C[C@@H]1NC(=O)[C@H](Cc2ccccc2)NC(=O)[C@@H]2CCCN2C(=O)[C@H]([C@@H](C)O)NC(=O)[C@H]([C@@H](C)O)NC(=O)[C@H]([C@@H](C)O)NC(=O)[C@H](Cc2c[nH]cn2)NC(=O)[C@H](Cc2ccccc2)NC(=O)[C@H]([C@@H](C)O)NC(=O)[C@H](C)NC(=O)[C@@H](Cc2ccc(O)cc2)NC(=O)CSC[C@@H](C(=O)NCC(N)=O)NC(=O)[C@@H]2CCCN2C(=O)[C@@H]2CCCN2C1=O | > 10000 nM |  | 
CC[C@H](C)[C@@H]1NC(=O)[C@@H](Cc2ccc(O)cc2)NC(=O)CSC[C@@H](C(N)=O)NC(=O)[C@H](C(C)C)NC(=O)[C@H](CC(C)C)NC(=O)[C@@H]2CCCN2C(=O)[C@H](Cc2ccccc2)NC(=O)[C@H]([C@@H](C)O)NC(=O)[C@H](CCC(N)=O)NC1=O | 1400 nM |  | inactive
CC(C)C[C@@H]1NC(=O)[C@H](Cc2ccccc2)NC(=O)[C@@H]2CCCN2C(=O)[C@H]([C@@H](C)O)NC(=O)[C@H]([C@@H](C)O)NC(=O)[C@H]([C@@H](C)O)NC(=O)[C@H](Cc2c[nH]cn2)NC(=O)[C@H](C)NC(=O)[C@H]([C@@H](C)O)NC(=O)[C@H](C(C)C)NC(=O)[C@@H](Cc2ccc(O)cc2)NC(=O)CSC[C@@H](C(=O)NCC(N)=O)NC(=O)[C@@H]2CCCN2C(=O)[C@@H]2CCCN2C1=O | > 10000 nM |  | 
CC(C)[C@@H]1NC(=O)[C@@H](Cc2ccc(O)cc2)NC(=O)CSC[C@@H](C(=O)NCC(N)=O)NC(=O)[C@@H]2CCCN2C(=O)[C@@H]2CCCN2C(=O)[C@H](C)NC(=O)[C@H](Cc2ccccc2)NC(=O)[C@@H]2CCCN2C(=O)[C@H]([C@@H](C)O)NC(=O)[C@H]([C@@H](C)O)NC(=O)[C@H]([C@@H](C)O)NC(=O)[C@H](Cc2c[nH]cn2)NC(=O)[C@H](Cc2ccccc2)NC(=O)[C@H]([C@@H](C)O)NC1=O | 370 nM |  | 
CC(C)C[C@@H]1NC(=O)[C@H](Cc2ccccc2)NC(=O)[C@@H]2CCCN2C(=O)[C@H]([C@@H](C)O)NC(=O)[C@H](C)NC(=O)[C@H]([C@@H](C)O)NC(=O)[C@H](Cc2c[nH]cn2)NC(=O)[C@H](Cc2ccccc2)NC(=O)[C@H]([C@@H](C)O)NC(=O)[C@H](C(C)C)NC(=O)[C@@H](Cc2ccc(O)cc2)NC(=O)CSC[C@@H](C(=O)NCC(N)=O)NC(=O)[C@@H]2CCCN2C(=O)[C@@H]2CCCN2C1=O | 200 nM |  | 
CC(C)C[C@@H]1NC(=O)[C@H](Cc2ccccc2)NC(=O)[C@@H]2CCCN2C(=O)[C@H]([C@@H](C)O)NC(=O)[C@H]([C@@H](C)O)NC(=O)[C@H]([C@@H](C)O)NC(=O)[C@H](Cc2c[nH]cn2)NC(=O)[C@H](Cc2ccccc2)NC(=O)[C@H]([C@@H](C)O)NC(=O)[C@H](C(C)C)NC(=O)[C@@H](Cc2ccc(O)cc2)NC(=O)CC[C@@H](C(=O)NCC(N)=O)NC(=O)[C@@H]2CCCN2C(=O)[C@@H]2CCCN2C1=O | 150 nM | > 100000 nM | 
CC(C)C[C@@H]1NC(=O)[C@H](Cc2ccccc2)NC(=O)[C@@H]2CCCN2C(=O)[C@H]([C@@H](C)O)NC(=O)[C@H]([C@@H](C)O)NC(=O)[C@H]([C@@H](C)O)NC(=O)[C@H](C)NC(=O)[C@H](Cc2ccccc2)NC(=O)[C@H]([C@@H](C)O)NC(=O)[C@H](C(C)C)NC(=O)[C@@H](Cc2ccc(O)cc2)NC(=O)CSC[C@@H](C(=O)NCC(N)=O)NC(=O)[C@@H]2CCCN2C(=O)[C@@H]2CCCN2C1=O | > 10000 nM |  | 
CC(C)C[C@@H]1NC(=O)[C@H](Cc2ccccc2)NC(=O)[C@@H]2CCCN2C(=O)[C@H]([C@@H](C)O)NC(=O)[C@H]([C@@H](C)O)NC(=O)[C@H]([C@@H](C)O)NC(=O)[C@H](Cc2c[nH]cn2)NC(=O)[C@H](Cc2ccccc2)NC(=O)[C@H]([C@@H](C)O)NC(=O)[C@H](C(C)C)NC(=O)[C@@H](Cc2ccc(O)cc2)NC(=O)CSC[C@@H](C(=O)NCC(N)=O)NC(=O)[C@H](C)NC(=O)[C@@H]2CCCN2C1=O | 1930 nM |  | 
CC[C@H](C)[C@@H]1NC(=O)[C@@H](Cc2ccc(O)cc2)NC(=O)CSC[C@@H](C(N)=O)NC(=O)[C@H](C(C)C)NC(=O)[C@H](CC(C)C)NC(=O)[C@@H]2CCCN2C(=O)[C@H](Cc2ccccc2)NC(=O)[C@H]([C@@H](C)O)NC(=O)[C@H](Cc2c[nH]cn2)NC1=O | 1400 nM |  | inactive
CC(C)C[C@@H]1NC(=O)[C@H](Cc2ccccc2)NC(=O)[C@H](C)NC(=O)[C@H]([C@@H](C)O)NC(=O)[C@H]([C@@H](C)O)NC(=O)[C@H]([C@@H](C)O)NC(=O)[C@H](Cc2c[nH]cn2)NC(=O)[C@H](Cc2ccccc2)NC(=O)[C@H]([C@@H](C)O)NC(=O)[C@H](C(C)C)NC(=O)[C@@H](Cc2ccc(O)cc2)NC(=O)CSC[C@@H](C(=O)NCC(N)=O)NC(=O)[C@@H]2CCCN2C(=O)[C@@H]2CCCN2C1=O | 390 nM |  | 
CC[C@H](C)[C@@H]1NC(=O)[C@@H](Cc2ccc(O)cc2)NC(=O)CSC[C@@H](C(N)=O)NC(=O)[C@H]([C@@H](C)CC)NC(=O)[C@@H]2CCCN2C(=O)[C@@H]2CCCN2C(=O)[C@H](Cc2ccccc2)NC(=O)[C@H](CO)NC(=O)[C@H](CCC(N)=O)NC1=O | 1400 nM |  | inactive
CC(C)[C@@H]1NC(=O)[C@@H](Cc2ccc(O)cc2)NC(=O)CC[C@@H](C(N)=O)NC(=O)[C@@H]2CCCN2C(=O)[C@@H]2CCCN2C(=O)[C@@H]2CSc3c(F)c(F)c(c(F)c3F)SC[C@H](NC1=O)C(=O)N[C@@H](Cc1ccccc1)C(=O)N[C@@H](Cc1c[nH]cn1)C(=O)N[C@@H]([C@@H](C)O)C(=O)N[C@@H]([C@@H](C)O)C(=O)N[C@@H]([C@@H](C)O)C(=O)N1CCC[C@H]1C(=O)N[C@@H](Cc1ccccc1)C(=O)N2 | 16600 nM | > 100000 nM | 
CC(C)C[C@@H]1NC(=O)[C@H](Cc2ccccc2)NC(=O)[C@@H]2CCCN2C(=O)[C@H]([C@@H](C)O)NC(=O)[C@H]([C@@H](C)O)NC(=O)[C@H]([C@@H](C)O)NC(=O)[C@H](Cc2c[nH]cn2)NC(=O)[C@H](Cc2ccccc2)NC(=O)[C@H](C)NC(=O)[C@H](C(C)C)NC(=O)[C@@H](Cc2ccc(O)cc2)NC(=O)CSC[C@@H](C(=O)NCC(N)=O)NC(=O)[C@@H]2CCCN2C(=O)[C@@H]2CCCN2C1=O | 1650 nM |  | 
CC(C)C[C@@H]1NC(=O)[C@H](C)NC(=O)[C@@H]2CCCN2C(=O)[C@H]([C@@H](C)O)NC(=O)[C@H]([C@@H](C)O)NC(=O)[C@H]([C@@H](C)O)NC(=O)[C@H](Cc2c[nH]cn2)NC(=O)[C@H](Cc2ccccc2)NC(=O)[C@H]([C@@H](C)O)NC(=O)[C@H](C(C)C)NC(=O)[C@@H](Cc2ccc(O)cc2)NC(=O)CSC[C@@H](C(=O)NCC(N)=O)NC(=O)[C@@H]2CCCN2C(=O)[C@@H]2CCCN2C1=O | 5780 nM |  | 
CC[C@H](C)[C@@H]1NC(=O)[C@H](Cc2c[nH]cn2)NC(=O)[C@H](CO)NC(=O)[C@H](Cc2ccccc2)NC(=O)[C@H](Cc2ccc(O)cc2)NC(=O)[C@H](CCC(N)=O)NC(=O)[C@H]([C@@H](C)O)NC(=O)[C@H](Cc2ccc(O)cc2)NC(=O)CSC[C@@H](C(=O)N[C@@H](CO)C(=O)N[C@@H](CO)C(=O)N[C@@H](CCCNC(=N)N)C(=O)N[C@@H](CO)C(=O)NCC(N)=O)NC1=O ({CH2CO}-YTQYFSHICSSRSG-NH2; thioether N-9) | > 100000 nM |  | 
CC(C)C[C@@H]1NC(=O)[C@H](Cc2ccccc2)NC(=O)[C@@H]2CCCN2C(=O)[C@H]([C@@H](C)O)NC(=O)[C@H]([C@@H](C)O)NC(=O)[C@H]([C@@H](C)O)NC(=O)[C@H](Cc2c[nH]cn2)NC(=O)[C@H](Cc2cccc(F)c2)NC(=O)[C@H]([C@@H](C)O)NC(=O)[C@H](C(C)C)NC(=O)[C@@H](Cc2ccc(O)cc2)NC(=O)CSC[C@@H](C(=O)NCC(N)=O)NC(=O)[C@@H]2CCCN2C(=O)[C@@H]2CCCN2C1=O | 250 nM | > 100000 nM | 
CC(C)C[C@@H]1NC(=O)[C@H](Cc2ccccc2)NC(=O)[C@@H]2CCCN2C(=O)[C@H]([C@@H](C)O)NC(=O)[C@H]([C@@H](C)O)NC(=O)[C@H]([C@@H](C)O)NC(=O)[C@H](Cc2c[nH]cn2)NC(=O)[C@H](Cc2ccccc2)NC(=O)[C@H]([C@@H](C)O)NC(=O)[C@H](C(C)C)NC(=O)[C@@H](Cc2ccc(O)cc2)NC(=O)CSC[C@@H](C(=O)NCC(N)=O)NC(=O)[C@@H]2CCCN2C(=O)[C@H](C)NC1=O | 610 nM |  | 
